Test results as given in ChEMBL document CHEMBL3885881, “DrugMatrix”.

Organism: Rattus norvegicus
Assay: DrugMatrix - Regimen: Daily Repeat
Format: toxicity, organism-based, Sprague-Dawley
Set-up: regimen Daily Repeat, gender Male, age 6-8 weeks
Details: in vivo, po, route oral GAVAGE, vehicle .5 % CMC; for ABSOLUTE BASOPHIL / ABSOLUTE EOSINOPHIL / ABSOLUTE LYMPHOCYTE / ABSOLUTE MONOCYTE / ABSOLUTE SEGMENTED NEUTROPHIL / BASOPHIL / EOSINOPHIL / ERYTHROCYTE COUNT / HEMATOCRIT / HEMOGLOBIN / LEUKOCYTE COUNT / LYMPHOCYTE / MEAN CORPUSCULAR HEMOGLOBIN / MEAN CORPUSCULAR HEMOGLOBIN CONCENTRATION / MEAN CORPUSCULAR VOLUME / MONOCYTE / NEUTROPHIL / NUCLEATED RED BLOOD CELLS / PLATELET COUNT: tissue Blood; for ALANINE AMINOTRANSFERASE / ALBUMIN / ASPARTATE AMINOTRANSFERASE / BLOOD UREA NITROGEN / CARBON DIOXIDE / CHLORIDE / CREATINE PHOSPHOKINASE / CREATININE / GLUCOSE / LACTATE DEHYDROGENASE / LIPASE / PHOSPHORUS / POTASSIUM / SODIUM / TOTAL BILIRUBIN / TOTAL PROTEIN: tissue Plasma
[1] = 16 mg/kg, 72 h, dose level Low, time 3 day
[2] = 16 mg/kg, 120 h, dose level Low, time 5 day
[3] = 2500 mg/kg, 72 h, dose level High, time 3 day
[4] = 2500 mg/kg, 120 h, dose level High, time 5 day

CC1=C(C(=O)O)N2C(=O)[C@@H](NC(=O)[C@H](N)c3ccccc3)[C@H]2SC1 [CEPHALEXIN ANHYDROUS]
ABSOLUTE BASOPHIL [1]: 0 CELLS/uL | ABSOLUTE EOSINOPHIL [1]: 0 CELLS/uL | ABSOLUTE LYMPHOCYTE [1]: 17436 CELLS/uL | ABSOLUTE MONOCYTE [1]: 124 CELLS/uL | ABSOLUTE SEGMENTED NEUTROPHIL [1]: 706.67 CELLS/uL | BASOPHIL [1]: 0% | EOSINOPHIL [1]: 0% | ERYTHROCYTE COUNT [1]: 5.81 x10E6/uL | HEMATOCRIT [1]: 35.97% | HEMOGLOBIN [1]: 13.93 G/DL | LEUKOCYTE COUNT [1]: 18.27 x10E3/uL | LYMPHOCYTE [1]: 95.33% | MEAN CORPUSCULAR HEMOGLOBIN [1]: 24.03 pg | MEAN CORPUSCULAR HEMOGLOBIN CONCENTRATION [1]: 38.8 G/DL | MEAN CORPUSCULAR VOLUME [1]: 61.97 fL | MONOCYTE [1]: 0.67% | NEUTROPHIL [1]: 4% | NUCLEATED RED BLOOD CELLS [1]: 0 /100WBC | PLATELET COUNT [1]: 1279 x10E3/uL | ALANINE AMINOTRANSFERASE [1]: 50.33 u/L | ALBUMIN [1]: 4.13 G/DL | ASPARTATE AMINOTRANSFERASE [1]: 86.67 u/L | BLOOD UREA NITROGEN [1]: 14.33 mg/dL | CARBON DIOXIDE [1]: 30 mmol/L | CHLORIDE [1]: 101 MEQ/L | CREATINE PHOSPHOKINASE [1]: 208 u/L | CREATININE [1]: 0.23 mg/dL | GLUCOSE [1]: 163.33 mg/dL | LACTATE DEHYDROGENASE [1]: 208.33 u/L | LIPASE [1]: 9 u/L | PHOSPHORUS [1]: 13.27 mg/dL | POTASSIUM [1]: 7.33 MEQ/L | SODIUM [1]: 146.17 MEQ/L | TOTAL BILIRUBIN [1]: 0.17 mg/dL | TOTAL PROTEIN [1]: 5.9 G/DL | ABSOLUTE BASOPHIL [2]: 0 CELLS/uL | ABSOLUTE EOSINOPHIL [2]: 0 CELLS/uL | ABSOLUTE LYMPHOCYTE [2]: 13406.33 CELLS/uL | ABSOLUTE MONOCYTE [2]: 44 CELLS/uL | ABSOLUTE SEGMENTED NEUTROPHIL [2]: 716.33 CELLS/uL | BASOPHIL [2]: 0% | EOSINOPHIL [2]: 0% | ERYTHROCYTE COUNT [2]: 5.62 x10E6/uL | HEMATOCRIT [2]: 33.87% | HEMOGLOBIN [2]: 13.33 G/DL | LEUKOCYTE COUNT [2]: 14.17 x10E3/uL | LYMPHOCYTE [2]: 94.67% | MEAN CORPUSCULAR HEMOGLOBIN [2]: 23.63 pg | MEAN CORPUSCULAR HEMOGLOBIN CONCENTRATION [2]: 39.33 G/DL | MEAN CORPUSCULAR VOLUME [2]: 60.17 fL | MONOCYTE [2]: 0.33% | NEUTROPHIL [2]: 5% | NUCLEATED RED BLOOD CELLS [2]: 0 /100WBC | PLATELET COUNT [2]: 900 x10E3/uL | ALANINE AMINOTRANSFERASE [2]: 49 u/L | ALBUMIN [2]: 4.2 G/DL | ASPARTATE AMINOTRANSFERASE [2]: 98 u/L | BLOOD UREA NITROGEN [2]: 14.67 mg/dL | CARBON DIOXIDE [2]: 24 mmol/L | CHLORIDE [2]: 103.33 MEQ/L | CREATINE PHOSPHOKINASE [2]: 652.67 u/L | CREATININE [2]: 0.25 mg/dL | GLUCOSE [2]: 200.67 mg/dL | LACTATE DEHYDROGENASE [2]: 425.67 u/L | LIPASE [2]: 9 u/L | PHOSPHORUS [2]: 13.2 mg/dL | POTASSIUM [2]: 6.1 MEQ/L | SODIUM [2]: 146.5 MEQ/L | TOTAL BILIRUBIN [2]: 0.17 mg/dL | TOTAL PROTEIN [2]: 6.13 G/DL | ABSOLUTE BASOPHIL [3]: 0 CELLS/uL | ABSOLUTE EOSINOPHIL [3]: 47.67 CELLS/uL | ABSOLUTE LYMPHOCYTE [3]: 14295 CELLS/uL | ABSOLUTE MONOCYTE [3]: 55 CELLS/uL | ABSOLUTE SEGMENTED NEUTROPHIL [3]: 435.67 CELLS/uL | BASOPHIL [3]: 0% | EOSINOPHIL [3]: 0.33% | ERYTHROCYTE COUNT [3]: 5.55 x10E6/uL | HEMATOCRIT [3]: 35.7% | HEMOGLOBIN [3]: 14 G/DL | LEUKOCYTE COUNT [3]: 14.83 x10E3/uL | LYMPHOCYTE [3]: 96.33% | MEAN CORPUSCULAR HEMOGLOBIN [3]: 25.23 pg | MEAN CORPUSCULAR HEMOGLOBIN CONCENTRATION [3]: 39.2 G/DL | MEAN CORPUSCULAR VOLUME [3]: 64.3 fL | MONOCYTE [3]: 0.33% | NEUTROPHIL [3]: 3% | NUCLEATED RED BLOOD CELLS [3]: 0 /100WBC | PLATELET COUNT [3]: 1231 x10E3/uL | ALANINE AMINOTRANSFERASE [3]: 67.33 u/L | ALBUMIN [3]: 3.93 G/DL | ASPARTATE AMINOTRANSFERASE [3]: 82.67 u/L | BLOOD UREA NITROGEN [3]: 16 mg/dL | CARBON DIOXIDE [3]: 31.67 mmol/L | CHLORIDE [3]: 100.33 MEQ/L | CREATINE PHOSPHOKINASE [3]: 209 u/L | CREATININE [3]: 0.17 mg/dL | GLUCOSE [3]: 140 mg/dL | LACTATE DEHYDROGENASE [3]: 154.67 u/L | LIPASE [3]: 9 u/L | PHOSPHORUS [3]: 10.93 mg/dL | POTASSIUM [3]: 6.36 MEQ/L | SODIUM [3]: 145.43 MEQ/L | TOTAL BILIRUBIN [3]: 0.2 mg/dL | TOTAL PROTEIN [3]: 5.67 G/DL | ABSOLUTE BASOPHIL [4]: 0 CELLS/uL | ABSOLUTE EOSINOPHIL [4]: 48.67 CELLS/uL | ABSOLUTE LYMPHOCYTE [4]: 11635.33 CELLS/uL | ABSOLUTE MONOCYTE [4]: 0 CELLS/uL | ABSOLUTE SEGMENTED NEUTROPHIL [4]: 2649.33 CELLS/uL | BASOPHIL [4]: 0% | EOSINOPHIL [4]: 0.33% | ERYTHROCYTE COUNT [4]: 5.85 x10E6/uL | HEMATOCRIT [4]: 35.6% | HEMOGLOBIN [4]: 13.87 G/DL | LEUKOCYTE COUNT [4]: 14.33 x10E3/uL | LYMPHOCYTE [4]: 81.67% | MEAN CORPUSCULAR HEMOGLOBIN [4]: 23.8 pg | MEAN CORPUSCULAR HEMOGLOBIN CONCENTRATION [4]: 38.93 G/DL | MEAN CORPUSCULAR VOLUME [4]: 61.07 fL | MONOCYTE [4]: 0% | NEUTROPHIL [4]: 18% | NUCLEATED RED BLOOD CELLS [4]: 0 /100WBC | PLATELET COUNT [4]: 1275.33 x10E3/uL | ALANINE AMINOTRANSFERASE [4]: 101.33 u/L | ALBUMIN [4]: 4.23 G/DL | ASPARTATE AMINOTRANSFERASE [4]: 94.67 u/L | BLOOD UREA NITROGEN [4]: 18.33 mg/dL | CARBON DIOXIDE [4]: 28 mmol/L | CHLORIDE [4]: 105.33 MEQ/L | CREATINE PHOSPHOKINASE [4]: 302 u/L | CREATININE [4]: 0.24 mg/dL | GLUCOSE [4]: 174.67 mg/dL | LACTATE DEHYDROGENASE [4]: 98.67 u/L | LIPASE [4]: 9.67 u/L | PHOSPHORUS [4]: 11.77 mg/dL | POTASSIUM [4]: 5.92 MEQ/L | SODIUM [4]: 150.03 MEQ/L | TOTAL BILIRUBIN [4]: 0.17 mg/dL | TOTAL PROTEIN [4]: 5.97 G/DL
